Reference: PMC4945070 (PLoS Neglected Tropical Diseases, 2016)
“And” between values parts separate entries of the source, which are not always exact repeats. Identical values can stand only once. “Also recorded” adds a separate entry of the source. Counter-ions that a name gives are not always drawn. Like-named read-outs stand apart in the source and are kept apart here.

Legend:
C. elegans = details: 200 μM LEV
Method: The Cel-unc-29, unc-29.1, unc-29.2, unc-29.3, unc-29.4 cDNA sequences were amplified by PCR using primers containing restriction site inserted with restriction enzymes in the plasmid backbone (Addgene L2534) containing the myo-3 promoter. Strains used in these study were the wild-type Bristol isolate N2 and the LEV resistant isolate CB1072: unc-29 (e1072). Worms were grown on Escherichia coli OP50 seeded NGM (Nematode Growth Medium) plates at 20°C and maintained using standard culture methods. Hermaphrodite young adult C. elegans were transformed by microinjection of plasmids into the gonads. […] Successful transformation was determined by the observation of fluorescence of the selection marker in the two targeted neurones of the head region. Only worms carrying the selection marker were used for the behavioural and pharmacological analysis.
Three day old adult fluorescent worms were transferred onto unseeded NGM plates, equilibrated at 20°C, containing 200 μM LEV. Drug induced paralysis was determined by visual inspection every 15 min. Worms were defined as paralyzed if no movement was observed within five seconds after prodding the tail with a hair tip. Statistics. Experimental data are shown as mean ± S.D. Statistical comparisons between the unc-29 (e1072) mutant strain and the transformed lines were done using two-way ANOVA with Bonferroni’s multiple comparison post test. A level of p < 0.05 was considered significant.

[1] = molecular target: H. contortus L-AChR1.4 (UNC-63, UNC-38, ACR-8, UNC-29.4) (Haemonchus contortus, UniProt A9XX24+D6MYF2+D6MYF3+D6MYF4); assay: cell-based; assay type: cell-based; design: Emax: dose or concentration left out as unconfirmed
Method: (§1) The H. contortus cDNAs encoding AChR subunits and ancillary proteins were available as expression clones in the pTB207 vector and C. elegans expression clones were a gift from T. Boulin.. cRNA synthesis of each construct required NheI-linearized templates and was performed with the mMessage mMachine T7 Kit (Ambion) according to the manufacturer’s instructions. cRNAs were precipitated with lithium chloride and redissolved in RNAse-free water and stored at -80°C. cRNA concentration was determined using a Nanodrop spectrophotometer (Thermo Scientific) and cRNA purity and integrity was assessed by electrophoresis through a 1% gel stained with GreenGlo nucleic acid dye (Denville Scientific Inc.).
(§2) Oocytes were collected from mature Xenopus females according to standard procedures and incubated at 19°C in a ND96 solution (NaCl 96 mM, KCl 2 mM, CaCl2 1.8 mM, MgCl2 1 mM, and HEPES 5 mM, pH 7.3 supplemented with sodium pyruvate 2.5 mM). Defolliculated oocytes were injected into the animal pole with approximately 36 nL of a cRNA mix containing 50 ng/μL of each cRNA in RNAse-free water using the Nanoject system (Drummond Scientific, Broomall, PA). Negative controls consisted of oocytes injected with RNAse-free water. Oocytes were then stored at 19°C in ND96 for 5 days to allow receptor expression. In order to prevent activation of endogenous calcium-activated chloride channels, the oocytes were incubated in ND96 supplemented with 100 μM of the calcium chelator BAPTA-AM, 4h prior to recording.
(§3) Two-electrode voltage-clamp experiments were carried out using a perfusion system connected to a flat RC-1Z chamber (Harvard Apparatus). Glass electrodes were filled with 3M KCl and checked for resistance between 1 and 3 MΩ. The oocyte bath was connected to the ground through a 3 M KCl agar bridge. Agonist and antagonists were dissolved or diluted in recording solution (100 mM NaCl, 2.5 mM KCl, 1 mM CaCl2, 5 mM HEPES, pH 7.3). All measurements were performed using a Geneclamp 500B amplifier and Digidata 1322M (Axon Instruments), oocytes were voltage-clamped at -60 mV. Drug solutions were applied to oocytes by gravity flow using perfusion syringes directly connected to the chamber. Data were collected and analyzed using Clampex 9.2 and Clampfit 9.2 (Axon Instruments, Sunnyvale, CA, USA). Traces were filtered at 30 Hz and analyzed using GraphPad Prism 5.0 software (GraphPad Software, San Diego, CA, USA). Final results are presented as means ± SE.

[2] = tested on: H. contortus L-AChR1.2 (UNC-63, UNC-38, ACR-8, UNC-29.2); assay type: cell-based, Haemonchus contortus; details: UNC-29.1 replaced by UNC-29.2; n = 18
Method: as §1, §2
Two-electrode voltage-clamp experiments were carried out using a perfusion system connected to a flat RC-1Z chamber (Harvard Apparatus). Glass electrodes were filled with 3M KCl and checked for resistance between 1 and 3 MΩ. The oocyte bath was connected to the ground through a 3 M KCl agar bridge. […] Data were collected and analyzed using Clampex 9.2 and Clampfit 9.2 (Axon Instruments, Sunnyvale, CA, USA). Traces were filtered at 30 Hz and analyzed using GraphPad Prism 5.0 software (GraphPad Software, San Diego, CA, USA). […]

[3] = molecular target: H. contortus L-AChR1.1 (UNC-63, UNC-38, ACR-8, UNC-29.1) (Haemonchus contortus, UniProt A9XX24+D6MYE9+D6MYF3+D6MYF4); assay: cell-based; design: Emax: dose or concentration left out as unconfirmed
Method: as §1, §2, §3

[4] = molecular target: H. contortus L-AChR1.3 (UNC-63, UNC-38, ACR-8, UNC-29.3) (Haemonchus contortus, UniProt A9XX24+D6MYF1+D6MYF3+D6MYF4); assay: cell-based; design: Emax: dose or concentration left out as unconfirmed
Method: as §1, §2, §3

[5] = tested on: C. elegans L-AChR subunits (Cel-unc-63, Cel-unc-38, Cel-lev-8, Cel-lev-1) with Hco-unc-29 paralog; assay: Two-electrode voltage clamp of C. elegans / H. contortus AChR subunit admixtures in Xenopus oocytes; assay type: cell-based; details: each Hco-unc-29 paralog
Source text: To confirm that the LEV sensitivity rescue could be due to the functional incorporation of parasite protein into the C. elegans L-AChR, we injected into Xenopus oocytes, cRNA admixtures of the four essential C. elegans L-AChR subunits: Cel-unc-63, Cel-unc-38, Cel-lev-8 and Cel-lev-1, the three H. contortus accessory proteins: ric-3, unc-50 and unc-74, and the Cel-unc-29 or each Hco-unc-29 paralog in turn. Reconstitution of the C. elegans L-AChR with Cel-unc-29 produced functional channels as previously described, confirming that the H. contortus accessory proteins are functional between species. Omitting unc-29 produced no response, so any current produced using parasite genes must involve their incorporation into a functional L-AChR. […] UNC-29.1 produced an average of 500 μA currents, while the other three produced reproducible currents below 200 nA with UNC-29.2 producing the smallest response on average (S1 Fig).
as §1, with “Inc.). […]” for “Inc.).”
Two-electrode voltage-clamp experiments were carried out using a perfusion system connected to a flat RC-1Z chamber (Harvard Apparatus). […] Data were collected and analyzed using Clampex 9.2 and Clampfit 9.2 (Axon Instruments, Sunnyvale, CA, USA). Traces were filtered at 30 Hz and analyzed using GraphPad Prism 5.0 software (GraphPad Software, San Diego, CA, USA). […]

[6] = molecular target: H. contortus L-AChR1.1 with added UNC-29.2 (Haemonchus contortus, UniProt A9XX24+D6MYE9+D6MYF3+D6MYF4); assay: Two-electrode voltage clamp of L-AChR1.1 supplemented with unc-29.2 cRNA in Xenopus oocytes; assay type: cell-based
Source text: Typically, such a situation can be identified by a change in the pharmacological properties of a receptor with addition of the second subunit. To address this, we examined the possibility that UNC-29.2 may interfere with or modify the properties of the reconstituted L-AChR1.1. We prepared oocytes injected with cRNAs to express the H. contortus L-AChR1.1 and supplemented this with an increasing (0.2, 1, 5 times) concentration of cRNA for UNC-29.2 relative to UNC-29.1.
as §1, §2, §3

Q: For `c1ccc([C@H]2CN3CCSC3=N2)cc1` [LEV, (-)-tetramisole hydrochloride], which “paralysis on exposure to LEV” value (C. elegans; mutant unc-29(e1072) (CB1072), two hours) is on record?
A: barely affected

Q: What about the “paralysis on exposure to LEV” value (C. elegans; unc-29(e1072) transfected with Cel-unc-29) of the same molecule?
A: complete rescue of LEV sensitivity

Q: What about the “paralysis on exposure to LEV” value (C. elegans; unc-29(e1072) transfected with each of the four H. contortus unc-29 copies) of the same molecule?
A: paralyzed after two hours

Q: And the “paralysis on exposure to LEV” value (C. elegans; wild-type N2 worms)?
A: rapid paralysis that was complete after an hour

Q: And the EC50 [1]?
A: 2.48 ± 0.35 µM

Q: What about the Hill [1] of the same molecule?
A: 0.90 ± 0.12

Q: What about the “Relative response (LEV versus ACh)” value [1] of the same molecule?
A: LEV = ACh

Q: What about the Emax ([1]; read-out: Max. Current ± S.E.) of the same molecule?
A: 94.7 ± 2.93%

Q: And the “current in response to 100 μM perfusion” value [2]?
A: failed to produce any detectable current

Q: And the Hill [3]?
A: 0.84 ± 0.05

Q: And the “Relative response (LEV versus ACh)” value [3]?
A: superagonist; also recorded: LEV > ACh

Q: And the EC50 ([3]; EC50)?
A: 4.9 µM and 4.91 µM

Q: What about the Emax at 100 µM ([3]; read-out: LEV current, % of ACh response) of the same molecule?
A: 125%

Q: And the Emax ([3]; read-out: Max. Current ± S.E.)?
A: 125 ± 3.76%

Q: What about the EC50 [4] of the same molecule?
A: 1.15 ± 0.08 µM

Q: What about the Hill [4] of the same molecule?
A: 1.13 ± 0.09

Q: And the “Relative response (LEV versus ACh)” value [4]?
A: partial agonist; also recorded: LEV < ACh

Q: What about the Emax at 100 µM ([4]; read-out: LEV current, % of the ACh current) of the same molecule?
A: 65.2 ± 9.9%

Q: What about the Emax ([4]; read-out: Max. Current ± S.E.) of the same molecule?
A: 65.2 ± 3.5%

Q: And the “current on perfusion of 100 μM LEV relative to the ACh response” value [5]?
A: comparable between subunit copies

Q: And the “effect of unc-29.2 cRNA on the pharmacological response” value ([6]; 0.2, 1, 5 times unc-29.2 cRNA relative to UNC-29.1)?
A: no effect

Q: What about the EC50 ([6]; 29.1 : 29.2 cRNA 1 : 0.2) of the same molecule?
A: 3.05 ± 0.44 µM

Q: What about the Hill ([6]; 29.1 : 29.2 cRNA 1 : 0.2) of the same molecule?
A: 0.69 ± 0.09

Q: What about the EC50 ([6]; 29.1 : 29.2 cRNA 1 : 1) of the same molecule?
A: 2.41 ± 0.08 µM

Q: What about the Hill ([6]; 29.1 : 29.2 cRNA 1 : 1) of the same molecule?
A: 0.71 ± 0.13

Q: And the EC50 ([6]; 29.1 : 29.2 cRNA 1 : 5)?
A: 3.7 ± 0.35 µM

Q: What about the Hill ([6]; 29.1 : 29.2 cRNA 1 : 5) of the same molecule?
A: 0.77 ± 0.13
